Laboratory results: patent publication US11986532B2 (Arvinas Operations, Inc., priority 2021, dated 2024)
Where two headings read alike, the source gives them in different places.

Molecular target: T1, BCL6 (Homo sapiens, UniProt P41182)
T1 construct: endogenous in cells; host or cells: T47D breast cancer epithelial cells
Test: Immunofluorescence protocol for high content imaging of BCL6 (degradation) in T47D cells, 3 days compound treatment
Assay type: cell-based
Conditions: for DC50: read-out: Mean DC50 (nM)* category; for Dmax: read-out: Mean Dmax (%)** category
Method in brief: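 Remaining BCL6 in breast cancer T47D cells was measured by high-content immunofluorescence imaging after 3 days of treatment with serially diluted compound (top 0.1 or 1 μM). Nuclei were stained with Hoechst and cells with CellMask.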

[1] = T47D cells, 3 days compound treatment

Row | Compound | DC50 [1] | Dmax [1] | Dmax (T47D) | DC50
1 | CNC(=O)COc1cc2cc(Nc3nc(N4CCC(O[C@H]5C[C@H](N6CCC(c7ccc8c(c7Cl)CN(C7CCC(=O)NC7=O)C8=O)CC6)C5)CC4)ncc3Cl)ccc2n(C(C)C)c1=O (some centres unmarked) [Compound 163, 2-({6-[(5-chloro-2-{4-[(1r,3r)-3-{4-[4-chloro-2-(2,6-dioxopiperidin-3-yl)-1-oxo-2,3-dihydro-1H-isoindol-5-yl]piperidin-1-yl}cyclobutoxy]piperidin-1-yl}pyrimidin-4-yl)amino]-2-oxo-1-(propan-2-yl)-1,2-dihydroquinolin-3-yl}oxy)-N-methylacetamide] | < 10 nM | ≥ 70% | – | –
2 | CNC(=O)COc1cc2cc(Nc3nc(N4CCC(OC5CCC6(CC5)CN(c5ccc7c(c5)CN(C5CCC(=O)NC5=O)C7=O)C6)CC4)ncc3Cl)ccc2n(C(C)C)c1=O (centres unmarked) [Compound 49, 2-{[6-({5-chloro-2-[4-({2-[2-(2,6-dioxopiperidin-3-yl)-1-oxo-2,3-dihydro-1H-isoindol-5-yl]-2-azaspiro[3.5]nonan-7-yl}oxy)piperidin-1-yl]pyrimidin-4-yl}amino)-2-oxo-1-(propan-2-yl)-1,2-dihydroquinolin-3-yl]oxy}-N-methylacetamide] | < 10 nM | 50 to 70% | – | –
3 | CNC(=O)COc1cc2cc(Nc3nc(N4CCN(CC5C6CN(c7ccc8c(c7)C(=O)N(C7CCC(=O)NC7=O)C8=O)CC56)CC4)ncc3Cl)ccc2n(C(C)C)c1=O (centres unmarked) [Compound 155, 2-{[6-({5-chloro-2-[4-({3-[2-(2,6-dioxopiperidin-3-yl)-1,3-dioxo-2,3-dihydro-1H-isoindol-5-yl]-3-azabicyclo [3.1.0]hexan-6-yl}methyl)piperazin-1-yl]pyrimidin-4-yl}amino)-2-oxo-1-(propan-2-yl)-1,2-dihydroquinolin-3-yl]oxy}-N-methylacetamide] | < 10 nM | < 50% | – | –
4 | CNC(=O)COc1cc2cc(Nc3nc(N4CCC5(CCN(CC6CCN(c7ccc8c(c7)C(=O)N(C7CCC(=O)NC7=O)C8=O)CC6)C5)C4)ncc3Cl)ccc2n(C(C)C)c1=O (centres unmarked) [Compound 4, 2-{[6-({5-chloro-2-[7-({1-[2-(2,6-dioxopiperidin-3-yl)-1,3-dioxo-2,3-dihydro-1H-isoindol-5-yl]piperidin-4-yl}methyl)-2,7-diazaspiro[4.4]nonan-2-yl]pyrimidin-4-yl}amino)-2-oxo-1-(propan-2-yl)-1,2-dihydroquinolin-3-yl]oxy}-N-methylacetamide] | 10 to 50 nM | < 50% | – | –
5 | CNC(=O)COc1cc2cc(Nc3nc(N4CCC(O[C@H]5C[C@H](N6CC[C@H](c7ccc8c(c7F)CN([C@H]7CCC(=O)NC7=O)C8=O)C[C@@H]6C)C5)CC4)ncc3Cl)ccc2n(C(C)C)c1=O [Compound 293, 2-({6-[(5-chloro-2-{4-[(1r,3r)-3-[(2S,4S)-4-{2-[(3S)-2,6-dioxopiperidin-3-yl]-4-fluoro-1-oxo-2,3-dihydro-1H-isoindol-5-yl}-2-methylpiperidin-1-yl]cyclobutoxy]piperidin-1-yl}pyrimidin-4-yl)amino]-2-oxo-1-(propan-2-yl)-1,2-dihydroquinolin-3-yl}oxy)-N-methylacetamide] | – | – | 50 to 70% | < 10 nM
6 | CNC(=O)COc1cc2cc(Nc3nc(N4CCC(O[C@H]5C[C@H](N6CCC7(CCCN(c8ccc9c(c8)CN(C8CCC(=O)NC8=O)C9=O)C7)C6)C5)CC4)ncc3Cl)ccc2n(C(C)C)c1=O (some centres unmarked) [Compound 354, 2-({6-[(5-chloro-2-{4-[(1r,3r)-3-{7-[2-(2,6-dioxopiperidin-3-yl)-1-oxo-2,3-dihydro-1H-isoindol-5-yl]-2,7-diazaspiro[4.5]decan-2-yl}cyclobutoxy]piperidin-1-yl}pyrimidin-4-yl)amino]-2-oxo-1-(propan-2-yl)-1,2-dihydroquinolin-3-yl}oxy)-N-methylacetamide] | – | – | 50 to 70% | < 10 nM
7 | CNC(=O)COc1cc2cc(Nc3nc(N4CCN(C(C)(C)C5CCN(c6cccc7c6CN(C6CCC(=O)NC6=O)C7=O)CC5)CC4)ncc3Cl)ccc2n(C(C)C)c1=O (centres unmarked) [Compound 104, 2-{[6-({5-chloro-2-[4-(2-{1-[2-(2,6-dioxopiperidin-3-yl)-1-oxo-2,3-dihydro-1H-isoindol-4-yl]piperidin-4-yl}propan-2-yl)piperazin-1-yl]pyrimidin-4-yl}amino)-2-oxo-1-(propan-2-yl)-1,2-dihydroquinolin-3-yl]oxy}-N-methylacetamide] | < 10 nM | 50 to 70% | – | –
8 | CNC(=O)COc1cc2cc(Nc3nc(N4CCC(F)(CN5CCC6(CC5)CCN(c5cccc7c5CN(C5CCC(=O)NC5=O)C7=O)CC6)CC4)ncc3Cl)ccc2n(C(C)C)c1=O (centres unmarked) [Compound 82, 2-{[6-({5-chloro-2-[4-({9-[2-(2,6-dioxopiperidin-3-yl)-1-oxo-2,3-dihydro-1H-isoindol-4-yl]-3,9-diazaspiro[5.5]undecan-3-yl}methyl)-4-fluoropiperidin-1-yl]pyrimidin-4-yl}amino)-2-oxo-1-(propan-2-yl)-1,2-dihydroquinolin-3-yl]oxy}-N-methylacetamide] | < 10 nM | ≥ 70% | – | –
9 | CNC(=O)COc1cc2c(F)c(Nc3cc(N4CCC(F)(CN5CCC6(CC5)CN(c5ccc7c(c5)CN(C5CCC(=O)NC5=O)C7=O)C6)CC4)ncc3Cl)ccc2n(C(C)C)c1=O (centres unmarked) [Compound 262, 2-{[6-({5-chloro-2-[4-({2-[2-(2,6-dioxopiperidin-3-yl)-1-oxo-2,3-dihydro-1H-isoindol-5-yl]-2,7-diazaspiro[3.5]nonan-7-yl}methyl)-4-fluoropiperidin-1-yl]pyridin-4-yl}amino)-5-fluoro-2-oxo-1-(propan-2-yl)-1,2-dihydroquinolin-3-yl]oxy}-N-methylacetamide] | – | – | 50 to 70% | < 10 nM
10 | CNC(=O)COc1cc2cc(Nc3nc(N4CCC(O[C@H]5C[C@H](N6CCCC7(CCN(c8ccc9c(c8)CN(C8CCC(=O)NC8=O)C9=O)C7)C6)C5)CC4)ncc3Cl)ccc2n(C(C)C)c1=O (some centres unmarked) [Compound 356, 2-({6-[(5-chloro-2-{4-[(1r,3r)-3-{2-[2-(2,6-dioxopiperidin-3-yl)-1-oxo-2,3-dihydro-1H-isoindol-5-yl]-2,7-diazaspiro [4.5]decan-7-yl}cyclobutoxy]piperidin-1-yl}pyrimidin-4-yl)amino]-2-oxo-1-(propan-2-yl)-1,2-dihydroquinolin-3-yl}oxy)-N-methylacetamide] | – | – | ≥ 70% | < 10 nM
11 | CNC(=O)COc1cc2cc(Nc3nc(N4CCC(O[C@H]5C[C@H](N6CCC(c7ccc8c(c7C)C(=O)N(C7CCC(=O)NC7=O)C8=O)CC6)C5)CC4)ncc3Cl)ccc2n(C(C)C)c1=O (some centres unmarked) [Compound 167, 2-({6-[(5-chloro-2-{4-[(1r,3r)-3-{4-[2-(2,6-dioxopiperidin-3-yl)-4-methyl-1,3-dioxo-2,3-dihydro-1H-isoindol-5-yl]piperidin-1-yl}cyclobutoxy]piperidin-1-yl}pyrimidin-4-yl)amino]-2-oxo-1-(propan-2-yl)-1,2-dihydroquinolin-3-yl}oxy)-N-methylacetamide] | < 10 nM | ≥ 70% | – | –
12 | CNC(=O)COc1cc2cc(Nc3nc(N4CCC(O[C@H]5C[C@H](N6CCN(c7ccc8c(n7)C(C)N(C7CCC(=O)NC7=O)C8=O)[C@@H](C)C6)C5)CC4)ncc3Cl)ccc2n(C(C)C)c1=O (some centres unmarked) [Compound 204] | < 10 nM | ≥ 70% | – | –
13 | CNC(=O)COc1cc2cc(Nc3nc(N4CCC(O[C@H]5C[C@H](N6CCN(c7c(F)cc8c(c7F)CN(C7CCC(=O)NC7=O)C8=O)CC6)C5)CC4)ncc3Cl)ccc2n(C(C)C)c1=O (some centres unmarked) [Compound 386, 2-({6-[(5-chloro-2-{4-[(1r,3r)-3-{4-[2-(2,6-dioxopiperidin-3-yl)-4,6-difluoro-1-oxo-2,3-dihydro-1H-isoindol-5-yl]piperazin-1-yl}cyclobutoxy]piperidin-1-yl}pyrimidin-4-yl)amino]-2-oxo-1-(propan-2-yl)-1,2-dihydroquinolin-3-yl}oxy)-N-methylacetamide] | – | – | 50 to 70% | < 10 nM
14 | CNC(=O)COc1cc2cc(Nc3nc(N4CCC(O[C@H]5C[C@H](N6CCC(c7ccc8c(c7F)CN([C@H]7CCC(=O)NC7=O)C8=O)CC6)C5)CC4)ncc3Cl)ccc2n(C(C)C)c1=O [Compound 385, 2-({6-[(5-chloro-2-{4-[(1r,3r)-3-(4-{2-[(3S)-2,6-dioxopiperidin-3-yl]-4-fluoro-1-oxo-2,3-dihydro-1H-isoindol-5-yl}piperidin-1-yl)cyclobutoxy]piperidin-1-yl}pyrimidin-4-yl)amino]-2-oxo-1-(propan-2-yl)-1,2-dihydroquinolin-3-yl}oxy)-N-methylacetamide] | – | – | 50 to 70% | < 10 nM
15 | CNC(=O)COc1cc2cc(Nc3nc(N4CCC5(CC4)CN(C(C)(C)C4CCN(c6cccc7c6CN(C6CCC(=O)NC6=O)C7=O)CC4)C5)ncc3Cl)ccc2n(C(C)C)c1=O (centres unmarked) [Compound 36, 2-{[6-({5-chloro-2-[2-(2-{1-[2-(2,6-dioxopiperidin-3-yl)-1-oxo-2,3-dihydro-1H-isoindol-4-yl]piperidin-4-yl}propan-2-yl)-2,7-diazaspiro [3.5]nonan-7-yl]pyrimidin-4-yl}amino)-2-oxo-1-(propan-2-yl)-1,2-dihydroquinolin-3-yl]oxy}-N-methylacetamide] | < 10 nM | ≥ 70% | – | –
16 | CNC(=O)COc1cc2cc(Nc3nc(N4CCC(O[C@H]5C[C@H](N6CCC7(CCN(c8ccc9c(c8)C(=O)N(C8CCC(=O)NC8=O)C9=O)C7)C6)C5)CC4)ncc3Cl)ccc2n(C(C)C)c1=O (some centres unmarked) [Compound 339, 2-({6-[(5-chloro-2-{4-[(1r,3r)-3-{7-[2-(2,6-dioxopiperidin-3-yl)-1,3-dioxo-2,3-dihydro-1H-isoindol-5-yl]-2,7-diazaspiro[4.4]nonan-2-yl}cyclobutoxy]piperidin-1-yl}pyrimidin-4-yl)amino]-2-oxo-1-(propan-2-yl)-1,2-dihydroquinolin-3-yl}oxy)-N-methylacetamide] | – | – | 50 to 70% | < 10 nM
